# Results: PubChem BioAssay (NCI)
#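 Briefly, cells in 96-well plates were exposed to five compound concentrations for 48 h, and endpoints were estimated by linear interpolation. The concentration for 50% growth inhibition is given as GI50. TGI marks complete inhibition of growth.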
# Experiments:
# Test in all cases: growth of human tumour cells (NCI), 48 h
# [1] = system: 786-0 renal
# [2] = system: A498 renal
# [3] = system: A549 NSCLC
# [4] = system: ACHN renal
# [5] = system: BT-549 breast
# [6] = system: CAKI-1 renal
# [7] = system: CCRF-CEM leukemia
# [8] = system: COLO 205 colon
# [9] = system: DU-145 prostate
# [10] = system: EKVX NSCLC
# [11] = system: HCC-2998 colon
# [12] = system: HCT-116 colon
# [13] = system: HCT-15 colon
# [14] = system: HL-60(TB) leukemia
# [15] = system: HOP-62 NSCLC
# [16] = system: HOP-92 NSCLC
# [17] = system: HS 578T breast
# [18] = system: HT29 colon
# [19] = system: IGROV1 ovarian
# [20] = system: K-562 leukemia
# [21] = system: KM12 colon
# [22] = system: LOX IMVI melanoma
# [23] = system: M14 melanoma
# [24] = system: MALME-3M melanoma
# [25] = system: MCF7 breast
# [26] = system: MDA-MB-231 breast
# [27] = system: MDA-MB-435
# [28] = system: MDA-MB-468 breast
# [29] = system: MOLT-4 leukemia
# [30] = system: NCI-H226 lung
# [31] = system: NCI-H23 lung
# [32] = system: NCI-H460 lung
# [33] = system: NCI-H522 lung
# [34] = system: NCI/ADR-RES ovarian
# [35] = system: OVCAR-3 ovarian
# [36] = system: OVCAR-4 ovarian
# [37] = system: OVCAR-5 ovarian
# [38] = system: OVCAR-8 ovarian
# [39] = system: PC-3 prostate
# [40] = system: RPMI-8226 leukemia
# [41] = system: RXF 393 renal
# [42] = system: SF-268 CNS
# [43] = system: SF-295 CNS
# [44] = system: SF-539 CNS
# [45] = system: SK-MEL-2 melanoma
# [46] = system: SK-MEL-28 melanoma
# [47] = system: SK-MEL-5 melanoma
# [48] = system: SK-OV-3 ovarian
# [49] = system: SN12C renal
# [50] = system: SNB-19 CNS
# [51] = system: SNB-75 CNS
# [52] = system: SR leukemia
# [53] = system: SW-620 colon
# [54] = system: T-47D breast
# [55] = system: TK-10 renal
# [56] = system: U251 CNS
# [57] = system: UACC-257 melanoma
# [58] = system: UACC-62 melanoma
# [59] = system: UO-31 renal
smiles,measurement,setting,value
CS(=O)(=O)Nc1cc(-c2ccc3ncnc(Nc4ccc(OCc5cccnc5)c(Cl)c4)c3c2)cnc1Cl,GI50,[1],1810 nM
same,TGI,[1],11.1 µM
same,GI50,[2],1840 nM
same,TGI,[2],6.49 µM
same,GI50,[3],7.76 µM
same,TGI,[3],25.1 µM
same,GI50,[4],4.45 µM
same,TGI,[4],> 48.8 µM
same,GI50,[5],379 nM
same,TGI,[5],2220 nM
same,GI50,[6],935 nM
same,TGI,[6],6.45 µM
same,GI50,[7],801 nM
same,TGI,[7],> 37.9 µM
same,GI50,[8],1410 nM
same,TGI,[8],3.59 µM
same,GI50,[9],2740 nM
same,TGI,[9],21.5 µM
same,GI50,[10],970 nM
same,TGI,[10],6.25 µM
same,GI50,[11],1590 nM
same,TGI,[11],5.22 µM
same,GI50,[12],1690 nM
same,TGI,[12],4.55 µM
same,GI50,[13],2840 nM
same,TGI,[13],17 µM
same,GI50,[14],335 nM
same,TGI,[14],10.3 µM
same,GI50,[15],1560 nM
same,TGI,[15],40.9 µM
same,GI50,[16],183 nM
same,TGI,[16],1970 nM
same,GI50,[17],196 nM
same,TGI,[17],1700 nM
same,GI50,[18],1950 nM
same,TGI,[18],13.2 µM
same,GI50,[19],231 nM
same,TGI,[19],1090 nM
same,GI50,[20],1850 nM
same,TGI,[20],32.4 µM
same,GI50,[21],3.82 µM
same,TGI,[21],15.2 µM
same,GI50,[22],792 nM
same,TGI,[22],2730 nM
same,GI50,[23],1510 nM
same,TGI,[23],13.8 µM
same,GI50,[24],271 nM
same,TGI,[24],2130 nM
same,GI50,[25],410 nM
same,TGI,[25],8.33 µM
same,GI50,[26],960 nM
same,TGI,[26],3.05 µM
same,GI50,[27],1160 nM
same,TGI,[27],9.24 µM
same,GI50,[28],208 nM
same,TGI,[28],962 nM
same,GI50,[29],465 nM
same,TGI,[29],4.91 µM
same,GI50,[30],1430 nM
same,TGI,[30],10.3 µM
same,GI50,[31],1370 nM
same,TGI,[31],5.33 µM
same,GI50,[32],3.58 µM
same,TGI,[32],21.4 µM
same,GI50,[33],641 nM
same,TGI,[33],4.39 µM
same,GI50,[34],32.7 µM
same,TGI,[34],> 100 µM
same,GI50,[35],700 nM
same,TGI,[35],3.48 µM
same,GI50,[36],4.91 µM
same,TGI,[36],90.4 µM
same,GI50,[37],2240 nM
same,TGI,[37],18 µM
same,GI50,[38],2560 nM
same,TGI,[38],20.5 µM
same,GI50,[39],1660 nM
same,TGI,[39],14.3 µM
same,GI50,[40],2050 nM
same,TGI,[40],6.8 µM
same,GI50,[41],367 nM
same,TGI,[41],2440 nM
same,GI50,[42],835 nM
same,TGI,[42],10.4 µM
same,GI50,[43],2370 nM
same,TGI,[43],12.1 µM
same,GI50,[44],852 nM
same,TGI,[44],3.5 µM
same,GI50,[45],901 nM
same,TGI,[45],2700 nM
same,GI50,[46],652 nM
same,TGI,[46],8.64 µM
same,GI50,[47],617 nM
same,TGI,[47],1930 nM
same,GI50,[48],1490 nM
same,TGI,[48],7.14 µM
same,GI50,[49],904 nM
same,TGI,[49],11.3 µM
same,GI50,[50],1150 nM
same,TGI,[50],9.24 µM
same,GI50,[51],139 nM
same,TGI,[51],4.37 µM
same,GI50,[52],746 nM
same,TGI,[52],> 20.6 µM
same,GI50,[53],1900 nM
same,TGI,[53],10.9 µM
same,GI50,[54],150 nM
same,TGI,[54],1470 nM
same,GI50,[55],714 nM
same,TGI,[55],5.51 µM
same,GI50,[56],917 nM
same,TGI,[56],4.65 µM
same,GI50,[57],1620 nM
same,TGI,[57],12.6 µM
same,GI50,[58],419 nM
same,TGI,[58],2320 nM
same,GI50,[59],1680 nM
same,TGI,[59],20.3 µM
